According to patent publication EP0558245A1, “Heterobicyclic compounds as antagogists of alpha-1 adrenergic and SHT1A receptors” (priority 1992, dated 1993):
Where two headings read alike, the source gives them in different places.

Tests used:
α₁ receptors = experiment: [3H]prazosin binding (α1 receptors), rat cerebral cortex membranes; details: rat cerebral cortex crude membranes, [3H]prazosin 0.35 nM, 25°C 30 min; read-out: Receptor Binding IC50 (nM) α1
Experimental: Rat cerebral cortices were homogenized in 50 volumes of original wet weight of ice-cold 50 mM Tris-HCl buffer pH 7.4. The homogenates were centrifuged at 48,000 x g for 10 minutes, and the pellets were resuspended in the same volume of ice-cold buffer, centrifuged and resuspended two more times. The final pellets obtained were resuspended in the same volume of buffer and incubated according to the conditions reported in the table below.
(§1) The incubations were terminated after the appropriate time (see table) by rapid filtration through Whatman GF/B filters using a Brandel cell harvester. The filters were washed twice with 15 ml of ice-cold buffer (see table). The radioactivity retained on the filters was determined by liquid scintillation counting. Nonspecific binding (which amounted generally to 10-30%) was evaluated by adding high concentrations of the specific displacers (see table). All the compounds were initially tested at 1x10⁻⁶ M concentration, and in the presence of significant displacing activity, a complete competition curve was generated (down to a concentration of 10⁻¹¹ M). All the samples were run in triplicate.

5HT1A receptors = target: T1, 5HT1A receptors (Rattus norvegicus, UniProt P19327); experiment: [3H]8-OH-DPAT binding (5HT1A receptors), rat hippocampus membranes; details: rat hippocampus crude membranes, [3H]8-OH-DPAT 1.0 nM, 25°C 30 min; read-out: Receptor Binding IC50 (nM) 5-HT1a
T1 construct: Rat hippocampi were homogenized; from tissue; host or cells: rat hippocampus membranes
T1 sequence (P19327 1-422): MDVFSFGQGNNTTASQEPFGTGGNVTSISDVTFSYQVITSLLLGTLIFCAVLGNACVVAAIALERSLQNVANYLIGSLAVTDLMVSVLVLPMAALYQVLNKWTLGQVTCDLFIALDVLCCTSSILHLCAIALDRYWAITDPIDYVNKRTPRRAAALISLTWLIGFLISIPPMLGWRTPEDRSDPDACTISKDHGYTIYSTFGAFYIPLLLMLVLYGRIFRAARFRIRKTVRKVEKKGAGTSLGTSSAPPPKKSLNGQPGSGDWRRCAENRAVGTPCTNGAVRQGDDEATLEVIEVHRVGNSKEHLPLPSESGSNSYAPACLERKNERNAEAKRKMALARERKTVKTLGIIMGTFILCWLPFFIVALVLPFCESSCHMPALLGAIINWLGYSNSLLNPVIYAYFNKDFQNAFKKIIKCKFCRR
Experimental: Rat hippocampi were homogenized in 50 volumes of original wet weight of ice-cold 50 mM Tris-HCl buffer pH 7.4. The homogenates were centrifuged at 48,000 x g for 10 minutes, and the pellets were resuspended in the same volume of ice-cold buffer, incubated for 10 minutes at 37°C, centrifuged and resuspended two more times. The final pellets obtained were resuspended in the same volume of buffer and incubated according to the conditions reported in the table below.
as §1
The competition curves were always analyzed (to evaluate the IC₅₀ values) by non linear curve fitting of the logistic equation according to the method reported by De Lean et al. (Am. J. Physiol., 235, E97, 1978), utilizing the ALLFIT program [publically available from the National Institutes of Health (N.I.H.) Bethesda, Maryland, USA] written for the IBM PC.

[1] = Acute toxicity in mice after intraperitoneal and oral administration; details: mouse, in vivo, female albino Swiss mice, mortality recorded 7 days after administration
Experimental: Male Sprague Dawley rats [Crl: CD' BR] of 200-300 g b.w., female Albino Swiss mice [Crl: CD-1 (ICR) BR] 20-30 g b.w., and male Beagle dogs (10-12 kg b.w.) were obtained from Charles River, Italy and Nossan (Correzzana, Milan, Italy), respectively. Animals were housed with free access to food and water and maintained on forced light-dark cycle at 22-24°C until the day of experiments.
The acute toxicity of synthesized compounds was evaluated in female albino Swiss mice after intraperitoneal and oral administration. Four logarithmic scaled doses of the compounds were dissolved or suspended in 0.5% Methocel and administered in a volume of 10 ml/kg to groups of 4 mice/dose. Mortality was recorded 7 days after the administration. Data analysis: the LD₅₀ values and their fiducial limits were calculated according to the method of Weil (Biometrics, 8, 249, 1952).

SMILES | IC50 (α₁ receptors) | IC50 (5HT1A receptors) | LD50 at 168 h ([1]; ip, intraperitoneal, read-out: Acute Toxicity in Mice LD50 (mg/kg) i.p.) | LD50 at 168 h ([1]; oral, read-out: Acute Toxicity in Mice LD50 (mg/kg) p.o.)
COc1ccccc1N1CCN(CCCNC(=O)c2cccc3c(=O)cc(-c4ccccc4)sc23)CC1 [Example 107, 8-{3-[4-(2-methoxyphenyl)-1-piperazinyl]-propylcarbamoyl}-4-oxo-2-phenyl-4H-1-benzothiopyran] | 37 nM | 16 nM |  | 
COc1ccccc1N1CCN(CCCN(O)C(=O)c2cccc3c(=O)c(C)c(-c4ccccc4)oc23)CC1 [Example 71, 8-{N-hydroxy-3-[4-(2-methoxyphenyl)-1-piperazinyl]-propylcarbamoyl}-3-methyl-4-oxo-2-phenyl-4H-1-benzopyran methanesulphonate 0.25 H20] | 108 nM | 69 nM |  | 
COc1ccccc1N1CCN(CCCNC(=O)c2cccc3c(=O)c(C)c(C)oc23)CC1 [Example 102, 8-{3-[4-(2-methoxyphenyl)-1-piperazinyl]-propylcarbamoyl}-2,3-dimethyl-4-oxo-4H-1-benzopyran] | 56 nM | 18 nM |  | 
COc1ccccc1N1CCN(CCCNC(=O)c2cc(N)cc3c(=O)c(C)c(-c4ccccc4)oc23)CC1 [Example 94, 8-{3-[4-(2-methoxyphenyl)-1-piperazinyl]-propylcarbamoyl}-6-amino-3-methyl-4-oxo-2-phenyl-4H-1-benzopyran] | 39 nM | 66 nM |  | 
COc1ccccc1N1CCN(CCCNC(=O)c2cccc3c(=O)c(CO)c(-c4ccccc4)oc23)CC1 [Example 85, 8-{3-[4-(2-methoxyphenyl)-1-piperazinyl]-propylcarbamoyl}-3-hydroxymethyl-4-oxo-2-phenyl-4H-1-benzopyran. 0.4 ethanol] | 16 nM | 14 nM |  | 
COc1ccccc1N1CCN(CCCNC(=S)c2cccc3c(=O)c(C)c(-c4ccccc4)oc23)CC1 [Example 83, 8-{3-[4-(2-methoxyphenyl)-1-piperazinyl]-propylthiocarbamoyl}-3-methyl-4-oxo-2-phenyl-4H-1-benzopyran methanesulphonate] | 30 nM | 5 nM |  | 
COc1ccccc1N1CCN(CCCNC(=O)c2cccc3c(=O)c(C)c(-c4ccc(C(F)(F)F)cc4)oc23)CC1 [Example 99, 8-{3-[4-(2-methoxyphenyl)-1-piperazinyl]-propylcarbamoyl}-3-methyl-4-oxo-2-(4-trifluoromethylphenyl)-4H-1-benzopyran methanesulphonate sesquihydrate] | 44 nM | 5 nM |  | 
COc1ccccc1N1CCN(CCCCS(=O)(=O)c2cccc3c(=O)c(C)c(-c4ccccc4)oc23)CC1 [Example 84, 8-{4-[4-(2-methoxyphenyl)-1-piperazinyl]-butylsulphonyl}-3-methyl-4-oxo-2-phenyl-4H-1-benzopyran methanesulphonate . ¼ H₂O] | 5 nM | 2 nM |  | 
COc1ccccc1N1CCN(CCCNC(=O)c2cccc3c(=O)c(C)c(C4CCCCC4)oc23)CC1 [Example 104, 8-{3-[4-(2-methoxyphenyl)-1-piperazinyl]-propylcarbamoyl}-2-cyclohexyl-3-methyl-4-oxo-4H-1-benzopyran] | 9 nM | 15 nM |  | 
COc1ccccc1N1CCN(CCCN(OC2CCCCO2)C(=O)c2cccc3c(=O)c(C)c(-c4ccccc4)oc23)CC1 (stereo not drawn) [Example 68, 8-{N-(2-tetrahydropyranyloxy)-3-[4-(2-methoxyphenyl)-1-piperazinyl]-propylcarbamoyl}-3-methyl-4-oxo-2-phenyl-4H-1-benzopyran methanesulphonate hemihydrate] | 29 nM | 13 nM |  | 
COc1ccc(-c2oc3c(C(=O)NCCCN4CCN(c5ccccc5OC)CC4)cccc3c(=O)c2C)cc1 [Example 110, 8-{3-[4-(2-methoxyphenyl)-1-piperazinyl]-propylcarbamoyl}-2-(4-methoxyphenyl)-3-methyl-4-oxo-4H-1-benzopyran] | 26 nM | 15 nM |  | 
COc1ccccc1N1CCN(CCCNC(=O)c2cc([N+](=O)[O-])cc3c(=O)c(C)c(-c4ccccc4)oc23)CC1 [Example 93, 8-{3-[4-(2-methoxyphenyl)-1-piperazinyl]-propylcarbamoyl}-3-methyl-6-nitro-4-oxo-2-phenyl-4H-1-benzopyran] | 47 nM | 38 nM |  | 
COc1ccccc1N1CCN(CCCSc2cccc3c(=O)c(C)c(-c4ccccc4)oc23)CC1 [Example 46, 8-{3-[4-(2-methoxyphenyl)-1-piperazinyl]-propylthio}-3-methyl-4-oxo-2-phenyl-4H-1-benzopyran] | 86 nM | 23 nM |  | 
COc1ccccc1N1CCN(CCCNC(=O)c2cccc3c(=O)c(-c4ccccc4)coc23)CC1 [Example 64, 8-{3-[4-(2-methoxyphenyl)-1-piperazinyl]-propylcarbamoyl}-3-phenyl-4-oxo-4H-1-benzopyran dimethanesulphonate] | 40 nM | 11 nM |  | 
COc1ccccc1N1CCN(CCCNC(=O)c2cccc3c(=O)cc(-c4ccccc4)oc23)CC1 [Example 86, 8-{3-[4-(2-methoxyphenyl)-1-piperazinyl]-propylcarbamoyl}-4-oxo-2-phenyl-4H-1-benzopyran methanesulphonate . ¼ H₂O] | 48 nM | 20 nM |  | 
COc1ccccc1N1CCN(CCCNC(=O)c2c(OC)ccc3c(=O)c(C)c(-c4ccccc4)oc23)CC1 [Example 98, 8-{3-[4-(2-methoxyphenyl)-1-piperazinyl]-propylcarbamoyl}-7-methoxy-3-methyl-4-oxo-2-phenyl-4H-1-benzopyran] | 103 nM | 12 nM |  | 
COc1ccccc1N1CCN(CCCC(=O)c2cccc3c(=O)c(C)c(-c4ccccc4)oc23)CC1.CS(=O)(=O)O |  |  | > 500 mg/kg | > 2000 mg/kg
COc1ccccc1OCCCNCCCNC(=O)c1cccc2c(=O)c(C)c(-c3ccccc3)oc12 [Example 74, 8-{3-[3-(2-methoxyphenoxy)-propylamino]-propylcarbamoyl}-3-methyl-4-oxo-2-phenyl-4H-1-benzopyran methanesulphonate hemihydrate] | 178 nM | 482 nM |  | 
COc1ccccc1N1CCN(CCCNC(=O)c2cccc3c(=O)ccoc23)CC1 [Example 88, 8-{3-[4-(2-methoxyphenyl)-1-piperazinyl]-propylcarbamoyl}-4-oxo-4H-1-benzopyran methanesulphonate . 1.25 H₂O] | 216 nM | 11 nM |  | 
COc1ccccc1N1CCN(CC/C=C/c2cccc3c(=O)c(C)c(-c4ccccc4)oc23)CC1 [Example 78, (E)-8-{4-[4-(2-methoxyphenyl)-1-piperazinyl]-1-butenyl}-3-methyl-4-oxo-2-phenyl-4H-1-benzopyran] | 18 nM | 116 nM |  | 
CSc1ccccc1OCCNCCCNC(=O)c1cccc2c(=O)c(C)c(-c3ccccc3)oc12 [Example 75, 8-{3-[2-(2-methylthiophenoxy)-ethylamino]-propylcarbamoyl}-3-methyl-4-oxo-2-phenyl-4H-1-benzopyran methanesulphonate] | 147 nM | 15 nM |  | 
COc1ccccc1N1CCN(CCNC(=O)Cc2cccc3c(=O)cc(-c4ccccc4)oc23)CC1 [Example 80, 8-{2-[4-(2-methoxyphenyl)-1-piperazinyl]-ethylcarbamoylmethyl}-4-oxo-2-phenyl-4H-1-benzopyran methanesulphonate hydrate] | 28 nM | 162 nM |  | 
COc1ccccc1N1CCN(CCCC(=O)c2cccc3c(=O)c(C)c(-c4ccccc4)oc23)CC1.CS(=O)(=O)O [methanesulphonate] | 22 nM | 84 nM |  | 
Cc1c(-c2ccccc2)oc2c(C(=O)NCCCNCC3CCc4ccccc4C3=O)cccc2c1=O (stereo not drawn) [Example 65, 8-{3-[(3,4-dihydro-1-oxo-2H-naphthyl)-methylamino]-propylcarbamoyl}-3-methyl-4-oxo-2-phenyl-4H-1-benzopyran methanesulphonate] |  | 26 nM |  | 
COc1ccccc1N1CC[N+]([O-])(CCCOc2cccc3c(=O)c(C)c(-c4ccccc4)oc23)CC1 [Example 43, 8-{3-[4-(2-methoxyphenyl)-1-oxo-1-piperazinyl]-propoxy}-3-methyl-4-oxo-2-phenyl-4H-1-benzopyran 1.75-hydrate] | 166 nM | > 1000 nM |  | 
COc1ccccc1N1CCN(CCCN(C(C)=O)C(=O)c2cccc3c(=O)c(C)c(-c4ccccc4)oc23)CC1 [Example 81, 8-{N-acetyl-3-[4-(2-methoxyphenyl)-1-piperazinyl]-propylcarbamoyl}-3-methyl-4-oxo-2-phenyl-4H-1-benzopyran] | 13 nM | 81 nM |  | 
